# Patent publication US11578013B2, “Nitrification inhibitors” (Lincoln University, priority 2020, dated 2023)
# Counter-ions that a name gives are not always drawn.
# Key:
# [1] = system: nitrification in the soil; assay: Laboratory soil incubation, Templeton sandy loam with synthetic cow urine, nitrate-N; conditions: for nitrate-N concentration in the soil compared with urine alone or urine+DMSO / reducing the nitrification rate compared with DCD: day 30; for reducing the nitrification rate compared with DCD: compound at 2 kg/ha vs DCD at 10 kg/ha; for % reduction by NI (nitrate-N): vs urine alone, 30 days; for Nitrate-N: 30 days of incubation
# Experimental: A Templeton sandy loam was used in this experiment. 500 g of soil (dry weight basis) was packed into a pottle. 50 mL of synthetic cow urine with an N concentration of 7 g N/L (comprising about 87% urea-N and 13% glycine-N) was applied to the soil (equivalent to 700 kg N/ha on weight basis, assuming bulk density of 1 g/cm^3 in the top 10 cm of soil). The 700 kg N/ha application was used to simulate the urine-N application rate under a typical dairy cow urine patch in a grazed pasture.
# Control treatments also added to soil were: • urine alone (50 mL); • DMSO (equivalent to 0.9 mL/500 g soil)+urine (50 mL) to determine the effect of DMSO on nitrification rate; • water alone (50 mL) (simulating areas of the soil where no urine was deposited).
# Pottles were covered with lids with breathing holes to allow for gas exchange during incubation. Pottles were incubated at 12° C. Soil moisture content was maintained at field capacity by adjusting on weight basis twice a week.
# Soil samples were collected and were then thoroughly mixed and subsamples were extracted in a potassium chloride solution and analysed for mineral-N. Soil moisture content was also determined. Samples were taken at 30 days after the start of incubation. […]
# nitrification = assay: Table 1 summary: compounds found to work or not work as nitrification inhibitors, Inhib(%); set-up: concentration or dose not given beside the values; conditions: test and rate not given
# Experimental: The phenotypic screening involved assessing the nitrification inhibition potency of the selected 5000 compounds against a key ammonia oxidizing bacterium responsible for ammonia oxidation in the soil, Nitrosomonas europaea, in 96-well microtiter plates. N. europaea cells were grown in the presence of an ammonium source, and the potential of putative nitrification inhibitors to inhibit the production of nitrite (NO2) was measured relative to untreated cells.
# A summary of selected compounds initially found to either work or not work as nitrification inhibitors is detailed in Table 1 below.
# [2] = system: N2O emissions in the soil; assay: Field study of nitrous oxide emissions, static gas chamber method, urine-treated pasture soil; conditions: for nitrous oxide reductions compared with DCD: sprayed onto urine-treated pasture soil
# Experimental: (§1) This study was conducted on the Lincoln University Research Dairy Farm, and the soil was a Templeton sandy loam with established perennial ryegrass (Lolium perenne) and white clover (Trifolium repens.) pasture. Metal rings (500 mm diameter and 200 mm height) were inserted into the ground. A water trough sitting on top of the metal rings allowed the placement of static chambers sitting on top of the water trough to provide a gas-tight seal to allow N2O gas sampling.
# Synthetic urine with a nitrogen concentration of 7 g N/L was applied to the soil plots confined within the metal rings at the equivalent rate of 700 kg N/ha. […] The plots were irrigated with irrigation water in accordance with local dairy farming practice.
# (§2) The gas chamber (500 mm diameter and 120 mm height) was constructed of a metal cylinder insulated with 2.5 cm thick polystyrene foam to avoid heating of the atmosphere in the chamber during sampling. During periods of N2O measurement, the edge of the chamber was placed inside the small water trough which was mounted around the top of each metal ring for gas sampling. At each sampling time, the chamber was placed on top of the soil ring for a total of 40 minutes, and 3 samples, 20 minutes apart, were taken using a syringe through a rubber septum on top of the gas chamber. Samples were taken twice weekly. Each sampling was carried out during the middle of the day between 12:00 h to 14:00 h (Di et al., 2007). The N2O concentration in the samples was analysed using a gas chromatograph (SRI8610C with an Electron Capture Detector (ECD) (SRI Instruments, USA) linked to a Gilson 222XL autosampler (Gilson, France)
# as §1, with “To determine the effect of treating the soil with 2-ethynyl-5-methoxypyridine on nitrous oxide emissions under field soil conditions, a field study was conducted using the static gas chamber method. This” for “This”
# Synthetic urine with a nitrogen concentration of 7 g N/L was applied to the soil plots confined within the metal rings at the equivalent rate of 700 kg N/ha. 196.25 mg or 39.2 mg of 2-ethynyl-5-methoxypyridine were dissolved in 2 mL DMSO, mixed with 1000 mL of water, and then sprayed on to the mini-plots at the rates of 196.25 mg/plot and 39.2 mg/plot, equivalent to 10 kg/ha and 2 kg/ha, respectively. The plots were irrigated with irrigation water in accordance with local dairy farming practice.
# as §2, with “France).” for “France)”
# To determine the effect of treating the soil with 3-ethynylpyridine 1-oxide on nitrous oxide emissions under field soil conditions, a field study was conducted using the static gas chamber method. […]
structure (smiles),measurement,setting,value
"C#Cc1ccc(C#C)cc1 [1,4-diethynylbenzene]",nitrate-N concentration in the soil compared with urine alone or urine+DMSO,[1]; 2 kg/ha,significantly lower nitrate-N concentrations
same,reducing the nitrification rate compared with DCD,[1],more effective than DCD
same,Inhib(%),nitrification,100%
"C#CC1CCN(C(C)=O)CC1 [1-(4-ethynyl-1-piperidinyl)ethanone, reference compound]",Inhib(%),nitrification,0%
C#Cc1ccc(OCC)cc1 [1-ethoxy-4-ethynylbenzene],nitrate-N concentration in the soil compared with urine alone or urine+DMSO,[1]; 2 kg/ha,significantly lower nitrate-N concentrations
same,reducing the nitrification rate compared with DCD,[1],more effective than DCD
same,Inhib(%),nitrification,100%
"C#Cc1ccc(OC(F)(F)F)cc1 [1-ethynyl-4-(trifluoromethoxy)benzene, reference compound]",Inhib(%),nitrification,8%
"C#Cc1ccc(OCCCCC)cc1 [1-ethynyl-4-pentoxybenzene, reference compound]",Inhib(%),nitrification,2%
"C#Cc1ccc(C#C)nc1 [2,5-diethynylpyridine]",nitrate-N concentration in the soil compared with urine alone or urine+DMSO,[1]; 2 kg/ha,lower nitrate-N concentrations
same,Inhib(%),nitrification,100%
"C#Cc1cnc(C#C)nc1 [2,5-diethynylpyrimidine, reference compound]",Inhib(%),nitrification,60%
"C#Cc1ncccn1 [2-Ethynyl 1,3 Diazine, 2-Ethynylpyrimidine]",% reduction by NI (nitrate-N),[1]; 0.5 kg/ha,96%
same,% reduction by NI (nitrate-N),[1]; 1 kg/ha,98%
same,% reduction by NI (nitrate-N),[1]; 2 kg/ha,84%
same,reducing the nitrification rate compared with DCD,[1],more effective than DCD
same,Nitrate-N,[1]; urine + inhibitor at 0.5 kg/ha,17.5 mg N/kg soil
same,Nitrate-N,[1]; urine + inhibitor at 1 kg/ha,9.1 mg N/kg soil
same,Nitrate-N,[1]; urine + inhibitor at 2 kg/ha,31.8 mg N/kg soil
same,Inhib(%),nitrification,94%
same,% reduction by NI (N2O emissions),"[2]; 2 kg/ha, vs urine alone",91%
same,nitrous oxide reductions compared with DCD,[2],greater than that by DCD
same,N2O emissions,[2]; urine + inhibitor at 2 kg/ha,1.2 kg N2O—N/ha
same,N2O emissions,[2]; urine + inhibitor at 10 kg/ha,0.53 kg N2O—N/ha
C#Cc1cnc(OC)cn1 [2-Ethynyl-5-methoxypyrazine],nitrate-N concentration in the soil compared with urine alone or urine+DMSO,[1]; 1 kg/ha,lower nitrate-N concentrations
same,nitrate-N concentration in the soil compared with urine alone or urine+DMSO,[1]; 2 kg/ha,lower nitrate-N concentrations
same,melting point,,41.3 to 42.7 °C
C#Cc1ncc(OC)cn1 [2-Ethynyl-5-methoxypyrimidine],nitrate-N concentration in the soil compared with urine alone or urine+DMSO,[1]; 1 kg/ha,lower nitrate-N concentrations
same,nitrate-N concentration in the soil compared with urine alone or urine+DMSO,[1]; 2 kg/ha,significantly lower nitrate-N concentrations
same,reducing the nitrification rate compared with DCD,[1],more effective than DCD
same,melting point,,56.2 to 57.2 °C
C#Cc1ccc(OC)cn1 [2-ethynyl-5-methoxypyridine],nitrate-N concentration in the soil compared with urine alone or urine+DMSO,[1]; 0.5 kg/ha,lower nitrate-N concentrations
same,% reduction by NI (nitrate-N),[1]; 0.5 kg/ha,93%
same,nitrate-N concentration in the soil compared with urine alone or urine+DMSO,[1]; 1 kg/ha,lower nitrate-N concentrations
same,% reduction by NI (nitrate-N),[1]; 1 kg/ha,97%
same,nitrate-N concentration in the soil compared with urine alone or urine+DMSO,[1]; 2 kg/ha,significantly lower nitrate-N concentrations
same,% reduction by NI (nitrate-N),[1]; 2 kg/ha,78%
same,reducing the nitrification rate compared with DCD,[1],more effective than DCD
same,Nitrate-N,[1]; urine + inhibitor at 0.5 kg/ha,28.6 mg N/kg soil
same,Nitrate-N,[1]; urine + inhibitor at 1 kg/ha,13.8 mg N/kg soil
same,Nitrate-N,[1]; urine + inhibitor at 2 kg/ha,100 mg N/kg soil
same,Inhib(%),nitrification,100%
same,nitrous oxide reductions compared with DCD,[2],greater than that by DCD
same,N2O emissions,[2]; urine + inhibitor at 2 kg/ha,2 kg N2O—N/ha
same,N2O emissions,[2]; urine + inhibitor at 10 kg/ha,2 kg N2O—N/ha
C#Cc1cnccn1 [2-ethynylpyrazine],reducing the nitrification rate compared with DCD,[1],more effective than DCD
"C#Cc1cncnc1 [3-Ethynyl 1,5 Diazine, 5-Ethynylpyrimidine]",% reduction by NI (nitrate-N),[1]; 0.5 kg/ha,70%
same,% reduction by NI (nitrate-N),[1]; 1 kg/ha,97%
same,% reduction by NI (nitrate-N),[1]; 2 kg/ha,84%
same,reducing the nitrification rate compared with DCD,[1],more effective than DCD
same,Nitrate-N,[1]; urine + inhibitor at 0.5 kg/ha,118.1 mg N/kg soil
same,Nitrate-N,[1]; urine + inhibitor at 1 kg/ha,13.3 mg N/kg soil
same,Nitrate-N,[1]; urine + inhibitor at 2 kg/ha,31.6 mg N/kg soil
same,Inhib(%),nitrification,95%
same,nitrous oxide reductions compared with DCD,[2],greater than that by DCD
same,N2O emissions,[2]; urine + inhibitor at 2 kg/ha,0.89 kg N2O—N/ha
same,N2O emissions,[2]; urine + inhibitor at 10 kg/ha,0.92 kg N2O—N/ha
C#Cc1cccnn1 [3-Ethynylpyridazine],nitrate-N concentration in the soil compared with urine alone or urine+DMSO,[1]; 0.5 kg/ha,lower nitrate-N concentrations
same,% reduction by NI (nitrate-N),[1]; 0.5 kg/ha,91%
same,nitrate-N concentration in the soil compared with urine alone or urine+DMSO,[1]; 1 kg/ha,lower nitrate-N concentrations
same,% reduction by NI (nitrate-N),[1]; 1 kg/ha,98%
same,nitrate-N concentration in the soil compared with urine alone or urine+DMSO,[1]; 2 kg/ha,significantly lower nitrate-N concentrations
same,% reduction by NI (nitrate-N),[1]; 2 kg/ha,95%
same,reducing the nitrification rate compared with DCD,[1],more effective than DCD
same,Nitrate-N,[1]; urine + inhibitor at 0.5 kg/ha,35.5 mg N/kg soil
same,Nitrate-N,[1]; urine + inhibitor at 1 kg/ha,10.3 mg N/kg soil
same,Nitrate-N,[1]; urine + inhibitor at 2 kg/ha,10.5 mg N/kg soil
C#Cc1ccc[n+]([O-])c1 [3-ethynylpyridine 1-oxide],nitrate-N concentration in the soil compared with urine alone or urine+DMSO,[1]; 0.5 kg/ha,lower nitrate-N concentrations
same,% reduction by NI (nitrate-N),[1]; 0.5 kg/ha,43%
same,nitrate-N concentration in the soil compared with urine alone or urine+DMSO,[1]; 1 kg/ha,lower nitrate-N concentrations
same,% reduction by NI (nitrate-N),[1]; 1 kg/ha,96%
same,nitrate-N concentration in the soil compared with urine alone or urine+DMSO,[1]; 2 kg/ha,significantly lower nitrate-N concentrations
same,% reduction by NI (nitrate-N),[1]; 2 kg/ha,97%
same,reducing the nitrification rate compared with DCD,[1],more effective than DCD
same,Nitrate-N,[1]; urine + inhibitor at 0.5 kg/ha,224.4 mg N/kg soil
same,Nitrate-N,[1]; urine + inhibitor at 1 kg/ha,20.8 mg N/kg soil
same,Nitrate-N,[1]; urine + inhibitor at 2 kg/ha,8.2 mg N/kg soil
same,Inhib(%),nitrification,100%
same,nitrous oxide reductions compared with DCD,[2],greater than that by DCD
same,N2O emissions,[2]; urine + inhibitor at 2 kg/ha,3.6 kg N2O—N/ha
same,N2O emissions,[2]; urine + inhibitor at 10 kg/ha,0.79 kg N2O—N/ha
C#Cc1ccncn1 [4-Ethynylpyrimidine],nitrate-N concentration in the soil compared with urine alone or urine+DMSO,[1]; 1 kg/ha,lower nitrate-N concentrations
same,nitrate-N concentration in the soil compared with urine alone or urine+DMSO,[1]; 2 kg/ha,significantly lower nitrate-N concentrations
same,reducing the nitrification rate compared with DCD,[1],more effective than DCD
same,Inhib(%),nitrification,100%
"C#Cc1ccc(O)cc1 [4-ethynylphenol, reference compound]",Inhib(%),nitrification,0%
"C#CC1CCNCC1 [4-ethynylpiperidine hydrochloride, reference compound]",Inhib(%),nitrification,0%
"C#Cc1cc[n+](O)cc1 [4-ethynylpyridine 1-oxide, reference compound]",Inhib(%),nitrification,18%
"C#Cc1c[nH]c(=O)[nH]c1=O [5-ethynyl-2,4(1H,3H)-pyrimidinedione, reference compound]",Inhib(%),nitrification,0%
C#Cc1ccc(OC)nc1 [5-ethynyl-2-methoxypyridine],nitrate-N concentration in the soil compared with urine alone or urine+DMSO,[1]; 2 kg/ha,lower nitrate-N concentrations
same,Inhib(%),nitrification,100%
